Tests used:
Experiment in all cases: relative viability (nuclei count vs DMSO), 5 days (fraction); higher = more cells survive
[1] = tested on: NCI-H2342
Summary of the method: (§1)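 Dosing by pin tool came one day after lung cancer cell lines were seeded in 1536-well plates, using either one drug or a fixed anchor-drug dose plus five library-drug doses (not always all listed) in √10 steps. After 5 days, nuclei were counted on 4× images. Relative viability is treated-well nuclei count divided by vehicle-well nuclei count, and values are medians of duplicate plates.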

[2] = tested on: NCI-H1793
Summary of the method: as §1

[3] = tested on: NCI-H23
Summary of the method: as §1

[4] = tested on: HCC-15
Summary of the method: as §1

[5] = tested on: EMC-BAC-2
Summary of the method: as §1

[6] = tested on: COR-L23
Summary of the method: as §1

[7] = tested on: COR-L 105
Summary of the method: as §1

[8] = tested on: NCI-H1915
Summary of the method: as §1

[9] = tested on: SK-MES-1
Summary of the method: as §1

[10] = tested on: LC-2-ad
Summary of the method: as §1

[11] = tested on: NCI-H2009
Summary of the method: as §1

[12] = tested on: NCI-H650
Summary of the method: as §1

[13] = tested on: NCI-H2347
Summary of the method: as §1

[14] = tested on: NCI-H1395
Summary of the method: as §1

[15] = tested on: NCI-H1755
Summary of the method: as §1

[16] = tested on: PC-14
Summary of the method: as §1

[17] = tested on: NCI-H2023
Summary of the method: as §1

[18] = tested on: NCI-H1437
Summary of the method: as §1

[19] = tested on: NCI-H1792
Summary of the method: as §1

[20] = tested on: 201T
Summary of the method: as §1

[21] = tested on: NCI-H358
Summary of the method: as §1

## Cc1cn(-c2cc(NC(=O)c3ccc(C)c(Nc4nccc(-c5cccnc5)n4)c3)cc(C(F)(F)F)c2)cn1 [Nilotinib] + CCNC(=O)c1noc(-c2cc(C(C)C)c(O)cc2O)c1-c1ccc(CN2CCOCC2)cc1 [Luminespib] (partner 0.01 µM)
[1]; first compound 0.001 µM
  relative viability: 0.595
[1]; first compound 0.003162 µM
  relative viability: 0.675
[1]; first compound 0.01 µM
  relative viability: 0.698
[1]; first compound 0.03162 µM
  relative viability: 0.586
[1]; first compound 0.1 µM
  relative viability: 0.673
[2]; first compound 0.001 µM
  relative viability: 0.158
[2]; first compound 0.003162 µM
  relative viability: 0.162
[2]; first compound 0.01 µM
  relative viability: 0.195
[2]; first compound 0.03162 µM
  relative viability: 0.168
[2]; first compound 0.1 µM
  relative viability: 0.166
[3]; first compound 0.001 µM
  relative viability: 0.204
[3]; first compound 0.01 µM
  relative viability: 0.205
[3]; first compound 0.03162 µM
  relative viability: 0.19
[3]; first compound 0.1 µM
  relative viability: 0.195
[4]; first compound 0.001 µM
  relative viability: 0.241
[4]; first compound 0.003162 µM
  relative viability: 0.431
[4]; first compound 0.01 µM
  relative viability: 0.486
[4]; first compound 0.03162 µM
  relative viability: 0.219
[4]; first compound 0.1 µM
  relative viability: 0.325
[5]; first compound 0.001 µM
  relative viability: 1.09
[5]; first compound 0.003162 µM
  relative viability: 1.36
[5]; first compound 0.01 µM
  relative viability: 1.22
[5]; first compound 0.03162 µM
  relative viability: 1.01
[5]; first compound 0.1 µM
  relative viability: 1.11
[6]; first compound 0.001 µM
  relative viability: 0.478
[6]; first compound 0.003162 µM
  relative viability: 0.557
[6]; first compound 0.01 µM
  relative viability: 0.883
[6]; first compound 0.03162 µM
  relative viability: 0.507
[6]; first compound 0.1 µM
  relative viability: 0.535
[7]; first compound 0.001 µM
  relative viability: 0.764
[7]; first compound 0.003162 µM
  relative viability: 0.711
[7]; first compound 0.01 µM
  relative viability: 0.75
[7]; first compound 0.03162 µM
  relative viability: 0.698
[7]; first compound 0.1 µM
  relative viability: 0.853
[8]; first compound 0.001 µM
  relative viability: 0.713
[8]; first compound 0.003162 µM
  relative viability: 0.896
[8]; first compound 0.01 µM
  relative viability: 1.41
[8]; first compound 0.03162 µM
  relative viability: 0.553
[8]; first compound 0.1 µM
  relative viability: 0.759
[9]; first compound 0.001 µM
  relative viability: 0.784
[9]; first compound 0.003162 µM
  relative viability: 0.985
[9]; first compound 0.01 µM
  relative viability: 0.927
[9]; first compound 0.03162 µM
  relative viability: 0.672
[9]; first compound 0.1 µM
  relative viability: 0.626
[10]; first compound 0.001 µM
  relative viability: 0.85
[10]; first compound 0.003162 µM
  relative viability: 1.15
[10]; first compound 0.01 µM
  relative viability: 1.21
[10]; first compound 0.03162 µM
  relative viability: 0.947
[10]; first compound 0.1 µM
  relative viability: 0.8
[11]; first compound 0.001 µM
  relative viability: 0.886
[11]; first compound 0.003162 µM
  relative viability: 1.14
[11]; first compound 0.01 µM
  relative viability: 1.16
[11]; first compound 0.03162 µM
  relative viability: 0.955
[11]; first compound 0.1 µM
  relative viability: 1.12
[12]; first compound 0.001 µM
  relative viability: 0.687
[12]; first compound 0.003162 µM
  relative viability: 0.564
[12]; first compound 0.01 µM
  relative viability: 0.792
[12]; first compound 0.03162 µM
  relative viability: 0.742
[12]; first compound 0.1 µM
  relative viability: 0.79
[13]; first compound 0.001 µM
  relative viability: 0.344
[13]; first compound 0.003162 µM
  relative viability: 0.263
[13]; first compound 0.01 µM
  relative viability: 0.712
[13]; first compound 0.03162 µM
  relative viability: 0.589
[13]; first compound 0.1 µM
  relative viability: 0.598
[14]; first compound 0.001 µM
  relative viability: 0.713
[14]; first compound 0.003162 µM
  relative viability: 0.39
[14]; first compound 0.01 µM
  relative viability: 0.702
[14]; first compound 0.03162 µM
  relative viability: 0.713
[14]; first compound 0.1 µM
  relative viability: 0.814
[15]; first compound 0.001 µM
  relative viability: 0.651
[15]; first compound 0.003162 µM
  relative viability: 0.418
[15]; first compound 0.01 µM
  relative viability: 0.396
[15]; first compound 0.03162 µM
  relative viability: 0.632
[15]; first compound 0.1 µM
  relative viability: 0.376
[16]; first compound 0.001 µM
  relative viability: 0.168
[16]; first compound 0.003162 µM
  relative viability: 0.152
[16]; first compound 0.01 µM
  relative viability: 0.138
[16]; first compound 0.03162 µM
  relative viability: 0.123
[16]; first compound 0.1 µM
  relative viability: 0.153
[17]; first compound 0.001 µM
  relative viability: 0.854
[17]; first compound 0.003162 µM
  relative viability: 0.89
[17]; first compound 0.01 µM
  relative viability: 0.99
[17]; first compound 0.03162 µM
  relative viability: 1.07
[17]; first compound 0.1 µM
  relative viability: 0.38
[18]; first compound 0.001 µM
  relative viability: 1.11
[18]; first compound 0.003162 µM
  relative viability: 1.3
[18]; first compound 0.01 µM
  relative viability: 1.26
[18]; first compound 0.03162 µM
  relative viability: 0.885
[18]; first compound 0.1 µM
  relative viability: 0.934
[19]; first compound 0.003162 µM
  relative viability: 0.417
[19]; first compound 0.01 µM
  relative viability: 0.545
[19]; first compound 0.1 µM
  relative viability: 0.266
[20]; first compound 0.003162 µM
  relative viability: 1.13
[20]; first compound 0.01 µM
  relative viability: 1.16
[20]; first compound 0.03162 µM
  relative viability: 1.11
[20]; first compound 0.1 µM
  relative viability: 1.03
[21]; first compound 0.001 µM
  relative viability: 0.286
[21]; first compound 0.003162 µM
  relative viability: 0.311
[21]; first compound 0.01 µM
  relative viability: 0.43
[21]; first compound 0.03162 µM
  relative viability: 0.188
